Test system: IFN-a/Jak1 Tyk2
Experiment: Co-stimulation assay in lysed whole blood: IFNa (JAK1/TYK2) stimulated STAT1 phosphorylation
Assay type: cell-based
Details: Homo sapiens, 20 min, 100 ng/mL IFNa (with 10 ng/mL GM-CSF), pSTAT by flow cytometry
Method in brief: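 Lysed human whole blood (RBC-lysed, resuspended in cRPMI) pre-incubated with compound 1 h at 37 °C, then stimulated 20 min with IFNa 100 ng/mL plus GM-CSF 10 ng/mL (final). Fixed, permeabilised, stained for pSTAT1 (PE) and pSTAT5 (AF488); flow cytometry read-out, ≥5,000–10,000 cells acquired.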

Compound | IC50
CNc1cc(Nc2cc(F)cc3c2OCCO3)nc2c(NC(=O)NCC(F)F)cnn12 [Compound 133, 1-(2,2-difluoroethyl)-3-(5-((7-fluoro-2,3-dihydrobenzo[b][1,4]dioxin-5-yl)amino)-7-(methylamino)pyrazolo[1,5-a]pyrimidin-3-yl)urea] | 1000 to 10000 nM
CNc1cc(Nc2cccc3c2OCCO3)nc2c(NC(=O)NC3CC(O)C3)cnn12 (stereo not shown) [Compound 29, 1-(5-((2,3-dihydrobenzo[b][1,4]dioxin-5-yl)amino)-7-(methylamino)pyrazolo[1,5-a]pyrimidin-3-yl)-3-(3-hydroxycylcobutyl)urea] | 1000 to 10000 nM
CNc1cc(Nc2cccc3c2OCCO3)nc2c(NC(=O)NC3CCCC3)cnn12 [Compound 108, 1-cyclopentyl-3-(5-((2,3-dihydrobenzo[b][1,4]dioxin-5-yl)amino)-7-(methylamino)pyrazolo[1,5-a]pyrimidin-3-yl)urea] | < 1000 nM
CNc1cc(Nc2cccc3c2OCCO3)nc2c(NC(=O)NC3CC(F)(F)C3)cnn12 [Compound 34, 1-(3,3-difluorocyclobutyl)-3-(5-((2,3-dihydrobenzo[b][1,4]dioxin-5-yl)amino)-7-(methylamino)pyrazolo[1,5-a]pyrimidin-3-yl)urea] | 1000 to 10000 nM
CNc1cc(Nc2cccc3c2OCCO3)nc2c(NC(=O)NC3CC(C#N)C3)cnn12 (stereo not shown) [Compound 27, 1-(3-cyanocyclobutyl)-3-(5-((2,3-dihydrobenzo[b][1,4]dioxin-5-yl)amino)-7-(methylamino)pyrazolo[1,5-a]pyrimidin-3-yl)urea] | < 1000 nM
CNc1cc(Nc2cccc3c2OCCO3)nc2c(NC(=O)NCCO)cnn12 [Compound 145, 1-(5-((2,3-dihydrobenzo[b][1,4]dioxin-5-yl)amino)-7-(methylamino)pyrazolo[1,5-a]pyrimidin-3-yl)-3-(2-hydroxyethyl)urea] | 1000 to 10000 nM
CNc1cc(Nc2cccc3c2OCCO3)nc2c(NC(=O)NC3CCC3)cnn12 [Compound 93, 1-cyclobutyl-3-(5-((2,3-dihydrobenzo[b][1,4]dioxin-5-yl)amino)-7-(methylamino)pyrazolo[1,5-a]pyrimidin-3-yl)urea] | < 1000 nM
CNC(=O)Nc1cnn2c(NC)cc(-c3cn(C4CCOCC4)c4ncccc34)nc12 [Compound 80, 1-methyl-3-(7-(methylamino)-5-(1-(tetrahydro-2H-pyran-4-yl)-1H-pyrrolo[2,3-b]pyridin-3-yl)pyrazolo[1,5-a]pyrimidin-3-yl)urea] | < 1000 nM
CNc1cc(Nc2cc(F)cc3c2OCCO3)nc2c(NC(=O)NCC3(C#N)CC3)cnn12 [Compound 180, 1-((1-cyanocyclopropyl)methyl)-3-(5-((7-fluoro-2,3-dihydrobenzo[b][1,4]dioxin-5-yl)amino)-7-(methylamino)pyrazolo[1,5-a]pyrimidin-3-yl)urea] | ≥ 10000 nM
CNc1cc(Nc2c(F)c(F)cc3c2OCCO3)nc2c(NC(=O)N[C@@H]3C[C@@H]3F)cnn12 [Compound 61, 1-(5-((6,7-difluoro-2,3-dihydrobenzo[b][1,4]dioxin-5-yl)amino)-7-(methylamino)pyrazolo[1,5-a]pyrimidin-3-yl)-3-((1R,2S)-2-fluorocyclopropyl)urea] | ≥ 10000 nM
CNc1cc(Nc2cccc3c2OCCO3)nc2c(NC(=O)NCCCO)cnn12 [Compound 100, 1-(5-((2,3-dihydrobenzo[b][1,4]dixoin-5-y)amino)-7-(methylamino)pyrazolo[1,5-a]pyrimidin-3-yl)-3-(3-hydroxypropyl)urea] | 1000 to 10000 nM
CNc1cc(Nc2cc(F)cc3c2OCCO3)nc2c(NC(=O)NC3CC3F)cnn12 (stereo not shown) [Compound 37, 1-(5-((7-fluoro-2,3-dihydrobenzo[b][1,4]dioxin-5-yl)amino)-7-(methylamino)pyrazolo[1,5-a]pyrimidin-3-yl)-3-(2-fluorocyclopropyl)urea] | < 1000 nM
CNc1cc(Nc2cc(F)cc3c2OCCO3)nc2c(NC(=O)NCC#N)cnn12 [Compound 114, 1-(cyanomethyl)-3-(5-((7-fluoro-2,3-dihydrobenzo[b][1,4]dioxin-5-yl)amino)-7-(methylamino)pyrazolo[1,5-a]pyrimidin-3-yl)urea] | < 1000 nM
CNc1cc(Nc2cccc3c2OCCO3)nc2c(NC(=O)NC3CC(=O)C3)cnn12 [Compound 36, 1-(5-((2,3-dihydrobenzo[b][1,4]dioxin-5-yl)amino)-7-(methylamino)pyrazolo[1,5-a]pyrimidin-3-yl)-3-(3-oxocyclobutyl)urea] | < 1000 nM
CNc1cc(Nc2cccc3c2OCCO3)nc2c(NC(=O)NC3CC3)cnn12 [Compound 139, 1-cyclopropyl-3-(5-((2,3-dihydrobenzo[b][1,4]dioxin-5-yl)amino)-7-(methylamino)pyrazolo[1,5-a]pyrimidin-3-yl)urea] | < 1000 nM

Further lines, results first:

IC50 | Compound
< 1000 nM | CCNC(=O)Nc1cnn2c(NC)cc(Nc3cccc4c3OCCO4)nc12 [Compound 147, 1-(5-((2,3-dihydrobenzo[b][1,4]dioxin-5-yl)amino)-7-(methylamino)pyrazolo[1,5-a]pyrimidin-3-yl)-3-ethylurea]
≥ 10000 nM | CNC(=O)Nc1cnn2c(NC)cc(Nc3ccccc3S(C)(=O)=O)nc12 [Compound 156, 1-methyl-3-(7-(methylamino)-5-((2-(methylsulfonyl)phenyl)amino)py-razolo[1,5-a]pyrimidin-3-yl)urea]
< 1000 nM | CNc1cc(Nc2cccc3c2OCCO3)nc2c(NC(=O)NC(C)C#N)cnn12 (stereo not shown) [Compound 119, 1-(1-cyanoethyl)-3-(5-((2,3-dihydrobenzo[b][1,4]dioxin-5-yl)amino)-7-(methylamino)pyrazolo[1,5-a]pyrimidin-3-yl)urea]
≥ 10000 nM | CNc1cc(Nc2cccc3c2OCCO3)nc2c(NC(=O)N(C)C)cnn12 [Compound 140, 3-(5-((2,3-dihydrobenzo[b][1,4]dioxin-5-yl)amino)-7-(methylamino)pyrazolo[1,5-a]pyrimidin-3-yl)-1,1-dimethylurea]
≥ 10000 nM | CNc1cc(Nc2cccc3cccnc23)nc2c(NC(=O)NC3CC3O)cnn12 (stereo not shown) [Compound 31, 1-(2-hydroxycyclopropyl)-3-(7-(methylamino)-5-(quinolin-8-ylamino)pyrazolo[1,5-a]pyrimidin-3-yl)urea]
1000 to 10000 nM | CNC(=O)Nc1cnn2c(NC)cc(Nc3ccccc3OC(C)C)nc12 [Compound 162, 1-(5-((2-isopropoxyphenyl)amino)-7-(methylamino)pyrazolo[1,5-a]pyrimidin-3-yl)-3-methylurea]
< 1000 nM | CNC(=O)Nc1cnn2c(NC)cc(Nc3cccc4c3OCCC4)nc12 [Compound 157, 1-(5-(chroman-8-ylamino)-7-(methylamino)pyrazolo[1,5-a]pyrimidin-3-yl)-3-methylurea]
1000 to 10000 nM | CNC(=O)Nc1cnn2c(NC)cc(Nc3cccc4c3CCCC4)nc12 [Compound 170, 1-methyl-3-(7-(methylamino)-5-((5,6,7,8-tetrahydronaphthalen-1-yl)amino)pyrazolo[1,5-a]pyrimidin-3-yl)urea]
< 1000 nM | CNc1cc(Nc2cccc3c2OCCO3)nc2c(NC(=O)NCC#N)cnn12 [Compound 102, 1-(cyanomethyl)-3-(5-((2,3-dihydrobenzo[b][1,4]dioxin-5-yl)amino)-7-(methylamino)pyrazolo[1,5-a]pyrimidin-3-yl)urea]
< 1000 nM | CNC(=O)Nc1cnn2c(NC)cc(Nc3cccc4c3CCCO4)nc12 [Compound 154, 1-(5-(chroman-5-ylamino)-7-(methylamino)pyrazolo[1,5-a]pyrimidin-3-yl)-3-methylurea]
< 1000 nM | CNC(=O)Nc1cnn2c(NC)cc(Nc3cccc4nccnc34)nc12 [Compound 166, 1-methyl-3-(7-(methylamino)-5-(quinoxalin-5-ylamino)pyrazolo[1,5-a]pyrimidin-3-yl)urea]
< 1000 nM | CNC(=O)Nc1cnn2c(NC)cc(Nc3cccnc3OC)nc12 [Compound 164, 1-(5-((2-methoxypyridin-3-yl)amino)-7-(methylamino)pyrazolo[1,5-a]pyrimidin-3-yl)-3-methylurea]
< 1000 nM | CNC(=O)Nc1cnn2c(NC)cc(Nc3cc(C4CC4)cc4c3OCCO4)nc12 [Compound 96, 1-(5-((7-cyclopropyl-2,3-dihydrobenzo[b][1,4]dioxin-5-yl)amino)-7-(methylamino)pyrazolo[1,5-a]pyrimidin-3-yl)-3-methylurea]
< 1000 nM | C#C[C@H](C)NC(=O)Nc1cnn2c(NC)cc(Nc3cccc4c3OCCO4)nc12 [Compound 123, (S)-1-(but-3-yn-2-yl)-3-(5-((2,3-dihydrobenzo[b][1,4]dioxin-5-yl)amino)-7-(methylamino)pyrazolo[1,5-a]pyrimidin-3-yl)urea]
1000 to 10000 nM | CNc1cc(Nc2cccnc2OC(F)F)nc2c(NC(=O)N[C@@H]3C[C@@H]3F)cnn12 [Compound 171, 1-(5-((2-(difluoromethoxy)pyridin-3-yl)amino)-7-(methylamino)pyrazolo[1,5-a]pyrimidin-3-yl)-3-((1R,2S)-2-fluorocyclopropyl)urea]
< 1000 nM | CNC(=O)Nc1cnn2c(NC)cc(Nc3cccc4c3OCCCO4)nc12 [Compound 169, 1-(5-((3,4-dihydro-2H-benzo[b][1,4]dioxepin-6-yl)amino)-7-(methylamino)pyrazolo[1,5-a]pyrimidin-3-yl)-3-methylurea]
< 1000 nM | CNC(=O)Nc1cnn2c(NC)cc(Nc3ccc(F)c4c3OCCO4)nc12 [Compound 142, 1-(5-((8-fluoro-2,3-dihydrobenzo[b][1,4]dioxin-5-yl)amino)-7-(methylamino)pyrazolo[1,5-a]pyrimidin-3-yl)-3-methylurea]
1000 to 10000 nM | CNC(=O)Nc1cnn2c(NC)cc(Nc3ccccc3Oc3ccccc3)nc12 [Compound 161, 1-methyl-3-(7-(methylamino)-5-((2-phenoxyphenyl)amino)pyrazolo[1,5-a]pyrimidin-3-yl)urea]
1000 to 10000 nM | CNC(=O)Nc1cnn2c(NC)cc(NC3CCCC3)nc12 [Compound 155, 1-(5-(cyclopentylamino)-7-(methylamino)pyrazolo[1,5-a]pyrimidin-3-yl)-3-methylurea]

Reference: patent publication US11753411B2, “Substituted pyrazolo[1,5-a]pyrimidines as TYK2 pseudokinase ligands” (Ventyx Biosciences, Inc., priority 2019, dated 2023)
